Results reported in US11247990B1, “Bicyclic fused pyridine compounds as inhibitors of TAM kinases” (ARRAY BIOPHARMA INC., priority 2017, dated 2022).
pIC50: −log10 of the molar value.

Assays:
Conditions in all cases: averaged IC50
[1] = target: GST-tagged recombinant human TYRO3 kinase domain (Homo sapiens (Human), UniProt Q06418); experiment: TYRO3 Enzyme Assay (LanthaScreen Eu Kinase Binding, TR-FRET)
Outline: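 LanthaScreen Eu binding (tracer displacement) format read by TR-FRET after 60 min at 22 °C. Emission ratio converted to percent of control; IC50 taken where a 4-parameter logistic fit crosses 50 POC.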

[2] = target: His-tagged recombinant human MER cytoplasmic domain (Homo sapiens (Human), UniProt Q12866); experiment: MER Enzyme Assay (LanthaScreen Eu Kinase Binding, TR-FRET)
Outline: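 Percent of control, derived from ratiometric TR-FRET emission, was fitted to a 4-parameter logistic curve and IC50 taken at 50 POC. Binding was read after 60 min at 22 °C using Eu-based LanthaScreen technology and recombinant His-tagged MER cytoplasmic domain.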

[3] = target: His-tagged recombinant human AXL cytoplasmic domain (Homo sapiens (Human), UniProt P30530); experiment: AXL Enzyme Assay (LanthaScreen Eu Kinase Binding, TR-FRET)
Outline: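 Compound displacement measured by TR-FRET after 60 min at 22 °C, using Eu-based LanthaScreen binding technology. Ratiometric emission converted to percent of control, fitted to a 4-parameter logistic curve, with IC50 at 50 POC.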

Chain of His-tagged recombinant human AXL cytoplasmic domain (P30530 473-894): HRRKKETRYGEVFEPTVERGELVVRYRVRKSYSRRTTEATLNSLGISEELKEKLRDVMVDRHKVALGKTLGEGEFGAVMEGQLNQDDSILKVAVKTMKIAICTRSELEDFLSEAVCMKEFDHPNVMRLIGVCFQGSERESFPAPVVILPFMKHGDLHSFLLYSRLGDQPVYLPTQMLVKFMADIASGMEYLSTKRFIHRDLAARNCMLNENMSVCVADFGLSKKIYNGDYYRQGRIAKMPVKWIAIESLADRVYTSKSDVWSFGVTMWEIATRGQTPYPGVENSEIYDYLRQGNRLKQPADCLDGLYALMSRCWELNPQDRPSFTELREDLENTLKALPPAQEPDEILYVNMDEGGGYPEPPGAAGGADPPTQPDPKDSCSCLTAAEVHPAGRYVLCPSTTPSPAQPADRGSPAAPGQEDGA
Chain of His-tagged recombinant human MER cytoplasmic domain (Q12866 527-999): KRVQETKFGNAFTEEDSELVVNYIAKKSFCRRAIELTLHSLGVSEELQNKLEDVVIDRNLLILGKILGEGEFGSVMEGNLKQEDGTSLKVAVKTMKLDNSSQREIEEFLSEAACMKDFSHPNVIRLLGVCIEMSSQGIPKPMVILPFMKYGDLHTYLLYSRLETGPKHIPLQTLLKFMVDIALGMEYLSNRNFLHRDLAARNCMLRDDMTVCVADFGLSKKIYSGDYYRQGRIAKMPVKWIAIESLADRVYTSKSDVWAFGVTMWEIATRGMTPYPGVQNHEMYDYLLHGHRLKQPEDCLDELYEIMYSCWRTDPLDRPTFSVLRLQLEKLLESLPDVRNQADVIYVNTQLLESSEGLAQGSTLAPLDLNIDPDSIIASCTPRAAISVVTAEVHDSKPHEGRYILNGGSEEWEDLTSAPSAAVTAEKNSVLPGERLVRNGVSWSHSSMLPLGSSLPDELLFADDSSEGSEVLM
Chain of GST-tagged recombinant human TYRO3 kinase domain (Q06418 518-790): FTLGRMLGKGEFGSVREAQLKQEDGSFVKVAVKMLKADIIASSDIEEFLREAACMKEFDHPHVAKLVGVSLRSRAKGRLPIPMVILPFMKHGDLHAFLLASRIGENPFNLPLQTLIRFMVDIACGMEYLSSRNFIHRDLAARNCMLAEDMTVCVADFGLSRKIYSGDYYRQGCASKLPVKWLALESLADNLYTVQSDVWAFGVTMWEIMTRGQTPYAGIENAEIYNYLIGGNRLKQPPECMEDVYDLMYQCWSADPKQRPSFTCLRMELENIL

pIC50 [1] | pIC50 [2] | pIC50 [3] | SMILES
> 8.00 | > 8.00 | > 8.00 | CCNc1cc2c(cn1)c(-c1cnn(C(CO)CO)c1)nn2[C@H]1CC[C@@H](Oc2cccc(F)c2F)CC1 [Example 415, 2-(4-(1-((1s,4s)-4-(2,3-difluorophenoxy)cyclohexyl)-6-(ethylamino)-1H-pyrazolo[4,3-c]pyridin-3-yl)-1H-pyrazol-1-yl)propane-1,3-diol]
7.00 to 8.00 | > 8.00 | > 8.00 | CNc1cc2c(cn1)c(-c1cnn(C[C@@H](O)CO)c1)nn2[C@H]1CC[C@@H](Oc2ccccc2C(F)(F)F)CC1 [Example 419, (R)-3-(4-(6-(methylamino)-1-((1s,4S)-4-(2-(trifluoromethyl)phenoxy)-cyclohexyl)-1H-pyrazolo[4,3-c]pyridin-3-yl)-1H-pyrazol-1-yl)propane-1,2-diol]
7.00 to 8.00 | > 8.00 | > 8.00 | CCNc1cc2c(cn1)c(-c1cnn(C[C@@H](O)CO)c1)nn2[C@H]1CC[C@@H](Oc2cccc(Cl)c2)CC1 [Example 422]
7.00 to 8.00 | > 8.00 | > 8.00 | CCNc1cc2c(cn1)c(-c1cnn(C[C@@H](O)CO)c1)nn2[C@H]1CC[C@@H](Oc2ccc(F)cc2F)CC1 [Example 423, (R)-3-(4-(1-((1s,4S)-4-(2,4-difluorophenoxy)cyclohexyl)-6-(ethylamino)-1H-pyrazolo[4,3-c]pyridin-3-yl)-1H-pyrazol-1-yl)propane-1,2-diol]
> 8.00 | > 8.00 | > 8.00 | CCNc1cc2c(cn1)c(-c1cnn(C[C@@H](O)CO)c1)nn2[C@H]1CC[C@@H](Oc2cccc(F)c2F)CC1 [Example 429, (R)-3-(4-(1-((1s,4S)-4-(2,3-difluorophenoxy)cyclohexyl)-6-(ethylamino)-1H-pyrazolo[4,3-c]pyridin-3-yl)-1H-pyrazol-1-yl)propane-1,2-diol]
7.00 to 8.00 | > 8.00 | > 8.00 | CCNc1cc2c(cn1)c(-c1cnn(CC(C)(O)CO)c1)nn2[C@H]1CC[C@@H](Oc2ccccc2F)CC1 (stereo partly drawn) [Example 431, 3-(4-(6-(ethylamino)-1-((1s,4s)-4-(2-fluorophenoxy)cyclohexyl)-1H-pyrazolo[4,3-c]pyridin 3-yl)-1H-pyrazol-1-yl)-2-methylpropane-1,2-diol]
> 8.00 | > 8.00 | > 8.00 | CNc1cc2c(cn1)c(-c1cnn(C[C@@H](N)CO)c1)nn2[C@H]1CC[C@@H](Oc2ccccc2F)CC1 [Example 432, (R)-2-amino-3-(4-(1-((1s,4S)-4-(2-fluorophenoxy)cyclohexyl)-6-(methylamino)-1H-pyrazolo[4,3-c]pyridin-3-yl)-1H-pyrazol-1-yl)propan-1-ol]
> 8.00 | > 8.00 | > 8.00 | CNc1cc2c(cn1)c(-c1cnn(C[C@H](N)CO)c1)nn2[C@H]1CC[C@@H](Oc2ccccc2F)CC1 [Example 433, (S)-2-amino-3-(4-(1-((1s,4S)-4-(2-fluorophenoxy)cyclohexyl)-6-(methylamino)-1H-pyrazolo[4,3-c]pyridin-3-yl)-1H-pyrazol-1-yl)propan-1-ol]

More lines, now with the values behind:

SMILES | pIC50 [1] | pIC50 [2] | pIC50 [3]
CCNc1cc2c(cn1)c(-c1cnn(C)c1)nn2[C@H]1CC[C@@H](Oc2nccc(C#N)c2F)CC1 [Example 352, 2-(((1s,4s)-4-(6-(ethylamino)-3-(1-methyl-1H-pyrazol-4-yl)-1H-pyrazolo[4,3-c]pyridin-1-yl)cyclohexyl)oxy)-3-fluoroisonicotinonitrile] | 7.00 to 8.00 | > 8.00 | > 8.00
CNc1cc2c(cn1)c(-c1cnn(C(C)(C)C#N)c1)nn2[C@H]1CC[C@@H](Oc2cccc(F)c2F)CC1 [Example 369, 2-(4-(1-((1s,4s)-4-(2,3-difluorophenoxy)cyclohexyl)-6-(methylamino)-1H-pyrazolo[4,3-c]pyridin-3-yl)-1H-pyrazol-1-yl)-2-methylpropanenitrile] | 7.00 to 8.00 | > 8.00 | > 8.00
CCNc1cc2c(cn1)c(-c1cnn(C)c1)nn2[C@H]1CC[C@@H](Oc2cccc(F)c2F)CC1 [Example 374, 1-((1s,4s)-4-(2,3-difluorophenoxy)cyclohexyl)-N-ethyl-3-(1-methyl-1H-pyrazol-4-yl)-1H-pyrazolo[4,3-c]pyridin-6-amine] | 7.00 to 8.00 | > 8.00 | > 8.00
CNc1cc2c(cn1)c(-c1cnn(C)c1)nn2[C@H]1CC[C@@H](Oc2ccccc2S(C)(=O)=O)CC1 [Example 375, N-methyl-3-(1-methyl-1H-pyrazol-4-yl)-1-((1s,4s)-4-(2-(methylsulfonyl)phenoxy)cyclohexyl)-1H-pyrazolo[4,3-c]pyridin-6-amine] | 7.00 to 8.00 | > 8.00 | > 8.00
CNc1cc2c(cn1)c(-c1cnn(C)c1)nn2[C@H]1CC[C@@H](Oc2cccc3ncccc23)CC1 [Example 377, N-methyl-3-(1-methyl-1H-pyrazol-4-yl)-1-((1s,4s)-4-(quinolin-5-yloxy)cyclohexyl)-1H-pyrazolo[4,3-c]pyridin-6-amine] | > 8.00 | > 8.00 | > 8.00
CCNc1cc2c(cn1)c(-c1cnn(C)c1)nn2[C@H]1CC[C@@H](Oc2cccc(C#N)c2)CC1 [Example 378, 3-(((1s,4s)-4-(6-(ethylamino)-3-(1-methyl-1H-pyrazol-4-yl)-1H-pyrazolo[4,3-c]pyridin-1-yl)cyclohexyl)oxy)benzonitrile] | 7.00 to 8.00 | > 8.00 | > 8.00
CCNc1cc2c(cn1)c(-c1cnn(C)c1)nn2[C@H]1CC[C@@H](Oc2cccc(C#N)c2C)CC1 [Example 382, 3-(((1s,4s)-4-(6-(ethylamino)-3-(1-methyl-1H-pyrazol-4-yl)-1H-pyrazolo[4,3-c]pyridin-1-yl)cyclohexyl)oxy)-2-methylbenzonitrile] | > 8.00 | > 8.00 | > 8.00
CNc1cc2c(cn1)c(-c1cnn(C)c1)nn2[C@H]1CC[C@@H](Oc2cccc3ncc(F)cc23)CC1 [Example 384, 1-((1,4s)-4-((3-fluoroquinolin-5-yl)oxy)cyclohexyl)-N-methyl-3-(1-methyl-1H-pyrazol-4-yl)-1H-pyrazolo[4,3-c]pyridin-6-amine] | > 8.00 | > 8.00 | > 8.00
CNC(=O)c1ccc(O[C@H]2CC[C@@H](n3nc(-c4cnn(C)c4)c4cnc(NC)cc43)CC2)c(C(F)(F)F)c1 [Example 393, N-methyl-4-(((1s,4s)-4-(3-(1-methyl-1H-pyrazol-4-yl)-6-(methylamino)-1H-pyrazolo[4,3-c]pyridin-1-yl)cyclohexyl)oxy)-3-(trifluoromethyl)benzamide] | 7.00 to 8.00 | > 8.00 | > 8.00
CNc1cc2c(cn1)c(-c1cnn(C(C)(C)CO)c1)nn2[C@H]1CC[C@@H](Oc2ccccc2F)CC1 [Example 395, 2-(4-(1-((1s,4s)-4-(2-fluorophenoxy)cyclohexyl)-6-(methylamino)-1H-pyrazolo[4,3-c]pyridin-3-yl)-1H-pyrazol-1-yl)-2-methylpropan-1-ol] | 7.00 to 8.00 | > 8.00 | > 8.00
CNc1cc2c(cn1)c(-c1cnn(CC(C)(C)O)c1)nn2[C@H]1CC[C@@H](Oc2ccccc2F)CC1 [Example 396, 1-(4-(1-((1s,4s)-4-(2-fluorophenoxy)cyclohexyl)-6-(methylamino)-1H-pyrazolo[4,3-c]pyridin-3-yl)-1H-pyrazol-1-yl)-2-methylpropan-2-ol] | 7.00 to 8.00 | > 8.00 | > 8.00
CNc1cc2c(cn1)c(-c1cnn([C@H]3CCNC[C@@H]3F)c1)nn2[C@H]1CC[C@@H](Oc2ccccc2F)CC1 [Example 399, 1-((1s,4R)-4-(2-fluorophenoxy)cyclohexyl)-3-(1-((3S,4S)-3-fluoropiperidin-4-yl)-1H-pyrazol-4-yl)-N-methyl-1H-pyrazolo[4,3-c]pyridin-6-amine] | 7.00 to 8.00 | > 8.00 | > 8.00
CNc1cc2c(cn1)c(-c1cnn(C(CO)CO)c1)nn2[C@H]1CC[C@@H](Oc2ccccc2F)CC1 [Example 408, 2-(4-(1-((1s,4s)-4-(2-fluorophenoxy)cyclohexyl)-6-(methylamino)-1H-pyrazolo[4,3-c]pyridin-3-yl)-1H-pyrazol-1-yl)propane-1,3-diol] | 7.00 to 8.00 | > 8.00 | > 8.00
CNc1cc2c(cn1)c(-c1cnn(C(CO)CO)c1)nn2[C@H]1CC[C@@H](Oc2cccc(F)c2)CC1 [Example 409, 2-(4-(1-((1s,4s)-4-(3-fluorophenoxy)cyclohexyl)-6-(methylamino)-1H-pyrazolo[4,3-c]pyridin-3-yl)-1H-pyrazol-1-yl)propane-1,3-diol] | 7.00 to 8.00 | > 8.00 | > 8.00
CNc1cc2c(cn1)c(-c1cnn(C(CO)CO)c1)nn2[C@H]1CC[C@@H](Oc2ccc(F)cc2)CC1 [Example 410, 2-(4-(1-((1s,4s)-4-(4-fluorophenoxy)cyclohexyl)-6-(methylamino)-1H-pyrazolo[4,3-c]pyridin-3-yl)-1H-pyrazol-1-yl)propane-1,3-diol] | 7.00 to 8.00 | > 8.00 | > 8.00
CCNc1cc2c(cn1)c(-c1cnn(C(CO)CO)c1)nn2[C@H]1CC[C@@H](Oc2ccc(F)cc2F)CC1 [Example 414, 2-(4-(1-((1s,4s)-4-(2,4-difluorophenoxy)cyclohexyl)-6-(ethylamino)-1H-pyrazolo[4,3-c]pyridin-3-yl)-1H-pyrazol-1-yl)propane-1,3-diol] | 7.00 to 8.00 | > 8.00 | > 8.00
